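The compound was tested at five concentrations on cells cultured in 96-well plates, with a 48-hour exposure period. GI50 = concentration required for 50% inhibition of growth. Definition used: TGI = concentration required for complete inhibition of growth.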
Experiments:
Assay in all cases: NCI-60 cell line screen, 48 h
UACC-257 melanoma = test system: UACC-257 melanoma
MOLT-4 leukemia = test system: MOLT-4 leukemia
SK-MEL-28 melanoma = test system: SK-MEL-28 melanoma
SK-MEL-5 melanoma = test system: SK-MEL-5 melanoma
NCI-H23 lung = test system: NCI-H23 lung
SN12C renal = test system: SN12C renal
UACC-62 melanoma = test system: UACC-62 melanoma
KM12 colon = test system: KM12 colon
SF-295 CNS = test system: SF-295 CNS
RXF 393 renal = test system: RXF 393 renal

SMILES | TGI (UACC-257 melanoma) [µM] | TGI (MOLT-4 leukemia) [µM] | TGI (SK-MEL-28 melanoma) [µM] | TGI (SK-MEL-5 melanoma) [µM] | TGI (NCI-H23 lung) [µM] | TGI (SN12C renal) [µM] | TGI (UACC-62 melanoma) [µM] | TGI (KM12 colon) [µM] | TGI (SF-295 CNS) [µM] | TGI (RXF 393 renal) [µM] | GI50 (UACC-257 melanoma) [µM] | GI50 (MOLT-4 leukemia) [µM] | GI50 (SK-MEL-28 melanoma) [µM] | GI50 (SK-MEL-5 melanoma) [µM] | GI50 (NCI-H23 lung) [µM] | GI50 (SN12C renal) [µM] | GI50 (UACC-62 melanoma) [µM] | GI50 (RXF 393 renal) [µM] | GI50 (KM12 colon) [µM] | GI50 (SF-295 CNS) [µM]
O=C1c2cc(O)c(O)cc2O[C@H](c2ccc(O)c(O)c2)[C@H]1O | > 100 | > 100 | > 100 | > 100 | > 100 | > 100 | > 100 | > 100 | > 100 | – | – | – | – | – | – | – | – | – | – | –
Oc1ccc(C(=C(Br)c2ccccc2)c2ccc(O)cc2)cc1 | 25.2 | 40.5 | 24 | 12.5 | 23.7 | 18.9 | 23.1 | 13.5 | 25.6 | 27.2 | – | – | – | – | – | – | – | – | – | –
CSc1nncc(-c2cc3c(c(SC)n2)CCCC3)n1 | > 100 | > 100 | > 100 | > 100 | > 100 | > 100 | > 100 | > 100 | > 100 | > 100 | – | – | – | – | – | – | – | – | – | –
O=[N+]([O-])c1ccc(/C=N/Nc2nc3ccccc3[nH]2)o1 | > 100 | 27.3 | 23.8 | 14.3 | 43.6 | 32.6 | – | 24.1 | 41.7 | 28.2 | – | – | – | – | – | – | – | – | – | –
O=C(CSCC(=O)N/N=C/c1cccc(O)c1)N/N=C/c1cccc(O)c1 | > 100 | > 100 | > 100 | > 100 | > 100 | > 100 | > 100 | > 100 | > 100 | > 100 | – | – | – | – | – | – | – | – | – | –
C=C(C#N)C(=O)OCC(CC)CC.C=C(C#N)C(=O)OCC(CC)CC.CS(C)=O.CS(C)=O.Nc1c(N=Nc2ccc(-c3ccc(N=Nc4cc(S(=O)(=O)[O-])c5ccccc5c4N)cc3)cc2)cc(S(=O)(=O)[O-])c2ccccc12.[Pt+2] | 31.8 | > 91.3 | 43 | > 77.4 | > 100 | > 100 | 97.4 | > 100 | > 100 | 51.1 | 17.4 | 27.1 | 21.7 | 34.1 | 40.7 | 57.7 | 36.8 | 19.5 | 46.6 | 98.4
O=C1c2cc3c(cc2-c2c1c1ccc(Cl)cc1c(=O)n2C[C@H](O)CO)OCO3 | 0.604 | 12.4 | 1.28 | 0.114 | 0.714 | – | 0.122 | 0.618 | 0.341 | 0.126 | 0.13 | < 0.01 | 0.2 | 0.0322 | 0.0366 | – | 0.0122 | 0.0275 | 0.113 | < 0.01
O=C1C(Cl)N(c2ccccc2Cl)C1c1c[nH]c2ccccc12 (centres undefined) | > 100 | > 100 | > 100 | > 100 | > 100 | > 100 | > 100 | > 100 | > 100 | > 100 | – | – | – | – | – | – | – | – | – | –
CCOC(=O)c1c2c(n(-c3ccc(C)cc3)c1C)-c1ccccc1C(=O)C2(C(=O)OCC)C(=O)OCC | > 100 | > 4.64 | > 85.5 | 50.4 | > 100 | > 100 | > 91.8 | > 100 | > 100 | 75.2 | – | – | – | – | – | – | – | – | – | –
CCN(CC)CCNc1ccc2ncn3c4ccc(O)cc4c(=O)c1c23 | 21.2 | 3.59 | 21.8 | 10.4 | 13.8 | 15.1 | 11.8 | 10.6 | 15.1 | 1.96 | – | – | – | – | – | – | – | – | – | –
CC(SC(=S)N1CCOCC1)C(=O)Nc1nnc(-c2ccc(Cl)cc2)o1 (centres undefined) | > 100 | > 100 | > 100 | > 100 | > 100 | > 100 | > 100 | – | – | > 100 | – | – | – | – | – | – | – | – | – | –
COc1ccc(OC)c2sc(N3C(=O)/C(=C/c4cccc(Oc5ccccc5)c4)N=C3c3ccccc3)nc12 | > 100 | > 100 | > 100 | > 100 | > 100 | > 100 | > 100 | > 100 | > 100 | > 100 | – | – | – | – | – | – | – | – | – | –
O=C1CC(O)c2cscc21 (centres undefined) | > 100 | > 100 | > 100 | > 100 | > 100 | > 100 | > 100 | > 100 | > 100 | > 100 | – | – | – | – | – | – | – | – | – | –
COc1ccc2nc3cc(Cl)ccc3c(NC(C)CCCN(CCCl)CCCl)c2c1 (centres undefined) | 14.9 | 0.344 | 18.4 | 7.89 | 2.89 | 8.66 | 2.41 | 4.6 | 10.6 | 4.9 | – | – | – | – | – | – | – | – | – | –
COC(=O)c1cc2c(cc1Cl)Sc1nnc(Nc3ccccc3)n1S2(=O)=O | 21.7 | 6.34 | 10.5 | 21.2 | 6.71 | 21.8 | 14.6 | 8.11 | 12.7 | 5.96 | – | – | – | – | – | – | – | – | – | –
Cc1cccc2sc(NC(=O)NS(=O)(=O)n3cnc4ccccc43)nc12 | 74.8 | 88 | > 100 | 56.3 | 43.6 | > 100 | 34.3 | > 100 | 50.1 | 49.1 | – | – | – | – | – | – | – | – | – | –
COc1ccc2nc3c(c(N)c2c1)C1CCC3C1(C)C (centres undefined) | 40.5 | > 100 | > 100 | 25.7 | > 100 | > 100 | 58 | > 100 | 69.7 | 81.5 | – | – | – | – | – | – | – | – | – | –
O=S(=O)(/N=C(\NO)Nc1ccc(Cl)cc1)c1cc(C(F)(F)F)cc(C(F)(F)F)c1 | 42.4 | 70.2 | 39 | 32.8 | 36.6 | 32.1 | 30.7 | 41.1 | 36.4 | 41 | – | – | – | – | – | – | – | – | – | –
Cc1ccc(S(=O)(=O)N(CC(O)COc2ccccc2)c2c(F)cccc2F)cc1 (centres undefined) | 44.5 | > 100 | 31 | 27.2 | 44.8 | 47.8 | 36.3 | 56.3 | 86 | 26.1 | – | – | – | – | – | – | – | – | – | –
C=CCNC(=O)C(C)C1CCC2(C)C=CC(=O)C(C)=C2C1O (centres undefined) | > 100 | > 100 | > 100 | > 100 | > 100 | > 100 | > 100 | > 100 | > 100 | > 100 | – | – | – | – | – | – | – | – | – | –
Cc1ccc(S(=O)(=O)OC2CC(C(C)(C)C)CCC2c2ccccc2)cc1 (centres undefined) | > 100 | > 100 | > 100 | > 100 | > 100 | > 100 | > 100 | > 100 | > 100 | > 100 | – | – | – | – | – | – | – | – | – | –
O=C1c2ccccc2C(=O)c2[nH]cnc21 | 54.2 | > 100 | > 100 | 34.2 | > 100 | > 100 | 82.2 | > 100 | > 100 | > 100 | – | – | – | – | – | – | – | – | – | –
NCCOc1cccc(C2(N3CCCCC3)CCCCC2)c1 | 34 | 48.7 | 35.5 | 30.1 | > 100 | > 100 | 44.2 | > 100 | 77.1 | > 100 | – | – | – | – | – | – | – | – | – | –
O=c1[nH]c2[nH]c(=S)[nH]c(=S)c2[nH]1 | > 100 | > 100 | > 100 | > 100 | > 100 | > 100 | > 100 | > 100 | > 100 | > 100 | – | – | – | – | – | – | – | – | – | –

From PubChem BioAssay (NCI)
